Patent US20100227887A1 (priority 2009, published 2010)

Experiments:
human mGlu 5a receptor = target: T1, human mGlu 5a receptor (Homo sapiens, UniProt P41594); experiment: [3H]MPEP competition binding on membranes of EBNA cells transfected with human mGlu 5a receptor; conditions: [3H]MPEP (2 nM) competition, 1 h at 4° C., EBNA cell membranes
T1 construct: expressed in transfected cells; host or cells: EBNA cells (transient transfection); cell membrane homogenates
Experimental: The pharmacological activity of the compounds was tested using the following method: For binding experiments, cDNA encoding human mGlu 5a receptor was transiently transfected into EBNA cells using a procedure described by Schlaeger and Christensen [Cytotechnology 15:1-13 (1998)]. Cell membrane homogenates were stored at −80° C. until the day of assay where upon they were thawed and resuspended and polytronised in 15 mM Tris-HCl, 120 mM NaCl, 100 mM KCl, 25 mM CaCl2, 25 mM MgCl2 binding buffer at pH 7.4 to a final assay concentration of 20 μg protein/well.
Saturation isotherms were determined by addition of twelve [^3H]MPEP concentrations (0.04-100 nM) to these membranes (in a total volume of 200 μl) for 1 h at 4° C. Competition experiments were performed with a fixed concentration of [^3H]MPEP (2 nM) and IC50 values of test compounds evaluated using 11 concentrations (0.3-10,000 nM). Incubations were performed for 1 h at 4° C.
At the end of the incubation, membranes were filtered onto unifilter (96-well white microplate with bonded GF/C filter preincubated 1 h in 0.1% PEI in wash buffer, Packard Bio-Science, Meriden, Conn.) with a Filtermate 96 harvester (Packard BioScience) and washed 3 times with cold 50 mM Tris-HCl, pH 7.4 buffer. Nonspecific binding was measured in the presence of 10 μM MPEP. The radioactivity on the filter was counted (3 min) on a Packard Top-count microplate scintillation counter with quenching correction after addition of 45 μl of microscint 40 (Canberra Packard S. A., Zürich, Switzerland) and shaking for 20 min.
For binding experiments the Ki values of the compounds tested are given. The Ki value is defined by the following formula: […]
in which the IC50 values are those concentrations of the compounds tested which cause 50% inhibition of the competing radioligand ([^3H]MPEP). L is the concentration of radioligand used in the binding experiment and the Kd value of the radioligand is empirically determined for each batch of membranes prepared.

T1 sequence (P41594 21-1180 isoform P41594-2 limits assumed): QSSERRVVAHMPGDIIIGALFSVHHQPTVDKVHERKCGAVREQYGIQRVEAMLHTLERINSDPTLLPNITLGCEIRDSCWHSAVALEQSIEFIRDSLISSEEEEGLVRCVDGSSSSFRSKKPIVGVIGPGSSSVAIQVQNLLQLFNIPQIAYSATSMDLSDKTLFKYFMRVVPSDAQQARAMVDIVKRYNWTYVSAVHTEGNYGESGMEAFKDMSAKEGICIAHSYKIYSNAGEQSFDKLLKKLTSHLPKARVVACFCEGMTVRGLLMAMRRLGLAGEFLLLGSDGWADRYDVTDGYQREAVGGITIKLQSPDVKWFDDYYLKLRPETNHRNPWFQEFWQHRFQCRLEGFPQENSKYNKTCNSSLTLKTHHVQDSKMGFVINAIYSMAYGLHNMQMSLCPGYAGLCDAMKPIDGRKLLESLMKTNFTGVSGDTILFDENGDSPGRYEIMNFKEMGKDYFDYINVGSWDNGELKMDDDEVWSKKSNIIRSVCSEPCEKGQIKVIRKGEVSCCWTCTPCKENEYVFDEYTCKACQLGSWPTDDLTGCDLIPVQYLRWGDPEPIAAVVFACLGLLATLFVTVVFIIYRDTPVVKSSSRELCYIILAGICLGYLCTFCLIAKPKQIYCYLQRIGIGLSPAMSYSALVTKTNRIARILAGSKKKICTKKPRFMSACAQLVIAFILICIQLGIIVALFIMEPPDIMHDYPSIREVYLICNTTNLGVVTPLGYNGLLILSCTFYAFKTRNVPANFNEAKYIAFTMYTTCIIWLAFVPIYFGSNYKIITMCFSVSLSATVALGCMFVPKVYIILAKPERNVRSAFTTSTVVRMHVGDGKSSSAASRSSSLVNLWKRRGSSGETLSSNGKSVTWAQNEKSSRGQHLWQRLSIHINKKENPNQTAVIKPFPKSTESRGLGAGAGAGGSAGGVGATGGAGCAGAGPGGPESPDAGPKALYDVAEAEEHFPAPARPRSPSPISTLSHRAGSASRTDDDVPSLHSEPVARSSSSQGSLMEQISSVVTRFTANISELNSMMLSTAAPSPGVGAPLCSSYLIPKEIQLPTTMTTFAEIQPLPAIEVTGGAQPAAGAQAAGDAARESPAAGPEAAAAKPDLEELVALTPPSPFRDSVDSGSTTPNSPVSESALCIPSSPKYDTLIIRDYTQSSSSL

Structure (SMILES) | Ki (human mGlu 5a receptor) [µM] | melting point [°C]
Cc1cccc(NC(=O)c2cc(Cl)cc(C)n2)n1 [Example 36, 4-Chloro-6-methyl-pyridine-2-carboxylic acid (6-methyl-pyridin-2-yl)-amide] | 0.015 | 130.5
Cc1cc(Cl)cc(C(=O)Nc2cccc(Cl)c2)n1 [Example 37, 4-Chloro-6-methyl-pyridine-2-carboxylic acid (3-chloro-phenyl)-amide] | 0.055 | 174
Cc1cc(C#N)cc(C(=O)Nc2ccc(F)c(Cl)c2)n1 [Example 38, 4-Cyano-6-methyl-pyridine-2-carboxylic acid (3-chloro-4-fluoro-phenyl)-amide] | 0.027 | 204
N#Cc1cc(CO)nc(C(=O)Nc2cccc(Cl)c2)c1 [Example 40, 4-Cyano-6-hydroxymethyl-pyridine-2-carboxylic acid (3-chloro-phenyl)-amide] | 0.044 | 167
Cc1cc(C#N)cc(C(=O)Nc2cccc(F)c2)n1 [Example 41, 4-Cyano-6-methyl-pyridine-2-carboxylic acid (3-fluoro-phenyl)-amide] | 0.009 | 139
Cc1cc(C#N)cc(C(=O)Nc2ccc(F)c(F)c2)n1 [Example 42, 4-Cyano-6-methyl-pyridine-2-carboxylic acid (3,4-difluoro-phenyl)-amide] | 0.117 | 170
Cc1cccc(NC(=O)c2cc(C#N)cc(C)n2)c1 [Example 43, 4-Cyano-6-methyl-pyridine-2-carboxylic acid m-tolylamide] | 0.009 | 160
Cc1cc(C#N)cc(C(=O)Nc2cccc(C(F)(F)F)c2)n1 [Example 44, 4-Cyano-6-methyl-pyridine-2-carboxylic acid (3-trifluoromethyl-phenyl)-amide] | 0.042 | 167
COc1cccc(NC(=O)c2cc(C#N)cc(C)n2)c1 [Example 45, 4-Cyano-6-methyl-pyridine-2-carboxylic acid (3-methoxy-phenyl)-amide] | 0.057 | 189
N#Cc1cc(CO)nc(C(=O)Nc2ccc(F)cn2)c1 [Example 46, 4-Cyano-6-hydroxymethyl-pyridine-2-carboxylic acid (5-fluoro-pyridin-2-yl)-amide] | 0.111 | 232.5
Cc1cccc(NC(=O)c2cc(C#N)cc(C)n2)n1 [Example 47, 4-Cyano-6-methyl-pyridine-2-carboxylic acid (6-methyl-pyridin-2-yl)-amide] | 0.018 | 243.5
Cc1cc(C#N)cc(C(=O)Nc2ccnc(F)c2)n1 [Example 48, 4-Cyano-6-methyl-pyridine-2-carboxylic acid (2-fluoro-pyridin-4-yl)-amide] | 0.033 | 246.5
Cc1cc(C#N)cc(C(=O)Nc2ccc(F)c(C)c2)n1 [Example 49, 4-Cyano-6-methyl-pyridine-2-carboxylic acid (4-fluoro-3-methyl-phenyl)-amide] | 0.072 | 177
Cc1cc(NC(=O)c2cc(C#N)cc(C)n2)ccn1 [Example 50, 4-Cyano-6-methyl-pyridine-2-carboxylic acid (2-methyl-pyridin-4-yl)-amide] | 0.099 | 302
Cc1cccc(NC(=O)c2cc(Cl)cc(C)n2)c1 [Example 51, 4-Chloro-6-methyl-pyridine-2-carboxylic acid m-tolylamide] | 0.097 | 95
